Assay results reported in paper PMC5017989, “Anti-inflammatory and acetylcholinesterase activity of extract, fractions and five compounds isolated from the leaves and twigs of Artemisia annua growing in Cameroon” (SpringerPlus, 2016).
Read-outs that look alike come from different tables or passages of the source. Marks after values point to notes of the source that are not given here.

How the values were obtained:
[1] = test system: NO production in LPS-activated RAW 264.7 macrophages; experiment: Nitric oxide inhibitory activity in LPS-activated RAW 264.7 macrophages (Griess reagent); assay type: cell-based, murine; conditions: for inhibition at 0.5 µg/mL / inhibition at 2 µg/mL / inhibition at 5 µg/mL / inhibition at 20 µg/mL: Mus musculus, relative to LPS control; for inhibition at 0.5 µg/mL: RAW264.7, sample at 0.5 µg/mL; for inhibition at 2 µg/mL: RAW264.7, sample at 2 µg/mL; for inhibition at 5 µg/mL: RAW264.7, sample at 5 µg/mL; for inhibition at 20 µg/mL: RAW264.7, sample at 20 µg/mL; for NO: LPS-activated RAW 264.7
Experimental: Compounds were assayed for their potential to inhibit the NO production in macrophage cells.
(§1) The RAW 264.7 macrophages cell line was purchased from the American Type Culture Collection (ATCC TIB-71, Rockville, MD, USA) and cultured in a plastic culture flask in DMEM containing L-glutamine supplemented with 10 % FCS and 1 % PSF solution at 37 °C with 5 % CO2. Cells were seeded (10^4 per well) in 96 well-microtitre plate and activated LPS alone (control) or with samples at different concentrations. Quercetin was used as a positive control (Mu et al. [2001]).
The amount of nitric oxide released was determined by the Griess reagent as reported previously (Dzoyem et al. [2015]).

in vitro = assay type: cell-based, murine; conditions: mouse, MTT, cells with LPS only = 100 %, read-out: % Cell viability
Experimental: as §1
(§2) The number of viable cells was determined as previously described by Mosmann ([1983]) on the macrophage cells with few modifications. Briefly, the cells were topped up with 200 µL DMEM after removal of media. 30 µL of 15 mg/mL MTT were added to each well and cells were incubated at 37 °C with 5 % CO2. The medium was aspirated after 2 h, and the formazan salt formed was dissolved using DMSO. The absorbance was read at 570 nm on a BioTek Synergy microplate reader. Cell viability percentage was then calculated with reference to the control (cells with LPS only considered as 100 % viable).

RAW 264.7 macrophages = experiment: in vitro; assay type: cell-based, murine; conditions: sample at 20 µg/mL; MTT; cells with LPS only = 100 %
Experimental: as §1, §2

acetylcholinesterase = acetylcholinesterase (Electrophorus electricus, UniProt O42275); experiment: biochemical
acetylcholinesterase, sequence (O42275 24-633): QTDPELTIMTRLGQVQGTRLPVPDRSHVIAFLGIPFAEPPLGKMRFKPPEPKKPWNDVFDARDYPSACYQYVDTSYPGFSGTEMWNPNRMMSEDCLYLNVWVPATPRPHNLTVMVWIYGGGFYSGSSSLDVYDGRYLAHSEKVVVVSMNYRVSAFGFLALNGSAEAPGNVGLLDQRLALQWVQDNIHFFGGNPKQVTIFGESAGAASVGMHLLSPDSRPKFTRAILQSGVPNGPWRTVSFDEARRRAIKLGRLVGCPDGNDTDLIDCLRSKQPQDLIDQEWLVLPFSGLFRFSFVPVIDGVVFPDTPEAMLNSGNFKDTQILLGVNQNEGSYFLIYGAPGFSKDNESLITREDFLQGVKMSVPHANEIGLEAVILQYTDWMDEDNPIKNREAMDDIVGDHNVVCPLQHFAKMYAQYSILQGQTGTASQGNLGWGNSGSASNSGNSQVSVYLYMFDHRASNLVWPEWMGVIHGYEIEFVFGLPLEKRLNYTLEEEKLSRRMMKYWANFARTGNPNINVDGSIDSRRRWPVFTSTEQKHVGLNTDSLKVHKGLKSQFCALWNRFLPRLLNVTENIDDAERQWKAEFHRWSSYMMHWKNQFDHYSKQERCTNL

SMILES | inhibition at 0.5 µg/mL [1] | inhibition at 2 µg/mL [1] | inhibition at 5 µg/mL [1] | inhibition at 20 µg/mL [1] | NO ([1]; sample at 0.5 µg/mL) | NO ([1]; sample at 2 µg/mL) | NO ([1]; sample at 5 µg/mL) | NO ([1]; sample at 20 µg/mL) | viability (in vitro; sample at 0.5 µg/mL) | viability (in vitro; sample at 2 µg/mL) | viability (in vitro; sample at 5 µg/mL) | viability (in vitro; sample at 20 µg/mL) | % Cell viability (RAW 264.7 macrophages) | inhibition at 100 µg/mL (acetylcholinesterase) | % Inhibition (acetylcholinesterase) (acetylcholinesterase; single concentration of 100 µg/mL (compounds and galantamine))
C[C@@H]1CC[C@H]2[C@@H](C)C(=O)O[C@@H]3O[C@@]4(C)CC[C@@H]1[C@]32OO4 [Compound 1, artemisinin] | 56.3 ± 14.4% | 83.1 ± 9.72% | 89.1 ± 7.05% | 99.2 ± 2.16% | 3.36 ± 1.10 µM | 1.30 ± 0.75 µM | 0.84 ± 0.54 µM | 0.07 ± 0.17 µM | 110 ± 6.22% | 104 ± 9.66% | 91.3 ± 2.2% | 80.9 ± 1.71% | without obvious cytotoxic effect | 71.7 ± 7.9% | 
COc1cc2ccc(=O)oc2cc1O [Compound 2, scopoletin] | 65.5 ± 4.41% | 72 ± 4.22% | 77.7 ± 2.09% | 98.46 ± 0.79% | 2.65 ± 0.34 µM | 2.15 ± 0.32 µM | 1.71 ± 0.16 µM | 0.12 ± 0.06 µM | 80.3 ± 8.56% | 69.9 ± 9.23% | 88.5 ± 1.19% | 81.6 ± 4.35% | without obvious cytotoxic effect | 56.3 ± 4.92% | 
COc1cc(-c2oc3cc(OC)c(OC)c(O)c3c(=O)c2OC)ccc1O [Compound 3, chrysosplenetin] | 37.7 ± 2.88% | 81.7 ± 1.04% | 98.6 ± 1.67% | > 100% | 4.79 ± 0.22 µM | 1.41 ± 0.08 µM | 0.10 ± 0.13 µM | -0.32 ± 0.02 µM | 95.6 ± 4.88% | 67.4 ± 3.74% | 28.5 ± 2.18% | 15.9 ± 2.37% |  | 80 ± 9.67% | 
COc1ccc(-c2oc3cc(OC)c(OC)c(O)c3c(=O)c2O)cc1O [Compound 4, eupatin] | 83.4 ± 1.96% | 97.9 ± 1.08% | 97.8 ± 6.28% | > 100% | 1.27 ± 0.15 µM | 0.16 ± 0.08 µM | 0.17 ± 0.48 µM | -0.20 ± 0.02 µM | 79.3 ± 5.34% | 48.5 ± 3.88% | 17.6 ± 1.66% | 7.49 ± 0.62% |  |  | 58.22 ± 2.73^b %
O=c1c(O)c(-c2ccc(O)c(O)c2)oc2cc(O)cc(O)c12 [Quercetin, reference compound] | 34.9 ± 2.76% | 43 ± 3.89% | 85.7 ± 2.34% | 103 ± 1.08% | 5.01 ± 1.67 µM | 4.38 ± 0.30 µM | 1.10 ± 0.18 µM |  | 105 ± 6.13% | 98.3 ± 5.17% | 76.2 ± 2.06% | 23.1 ± 5.37% |  |  | 
